Results: patent publication US20260256143A1, “HERBICIDAL COMPOSITION AND METHOD FOR CONTROLLING WEEDS” (Enko Chem, Inc., priority 2023, published 2026)
Where two headings read alike, the source gives them in different places.

Assays:
AMATU [1] = assay: Field test, soil residual activity on bare soil (Example 71); format: in vivo, Amaranthus rudis; details: Amaranthus tuberculatus, 1008 h, 6 weeks after application, read-out: % growth inhibition AMATU
Method: (§1) Compound 1 and Compound 1 mixed with pyroxasulfone were tested at different field locations to evaluate the herbicides efficacy for controlling weeds by soil residual activity. All herbicide treatments were applied with a backpack CO2 pressurized sprayer at 190 L/ha volume. The herbicide applications were made to bare soil free of any vegetation to assess the efficacy of the different herbicides to suppress weeds germination and development. The herbicide treatments included Compound 1 formulated as 10% emulsified concentrate, pyroxasulfone as a commercial formulation (ZIDUA SC, BASF), or a mixture of Compound 1 and pyroxasulfone products prepared as a “tank-mix” before the field application. All herbicide field spray solution included ammonium sulfate final solution concentration of 2%. Different weeds species were assessed at the separate field locations. For each species, the herbicide efficacy to control weeds, assessed as % of suppressed weeds plants relative to the untreated control plots, was evaluated at 6 weeks after the herbicide application.

DIGSA [2] = assay: as above; format: in vivo; details: Digitaria sanguinalis, 1008 h, Loc 5, pyroxasulfone 90 g a.i./ha, 6 weeks after application, read-out: % growth inhibition DIGSA
Method: as §1

SETFA = assay: as above; format: in vivo; details: Setaria faberi, 1008 h, Loc 4, pyroxasulfone 90 g a.i./ha, 6 weeks after application, read-out: % growth inhibition SETFA
Method: as §1

AMAPA [3] = assay: as above; format: in vivo; details: Amaranthus palmeri, 1008 h, 6 weeks after application, read-out: % growth inhibition AMAPA
Method: as §1

ABUTH = assay: as above; format: in vivo; details: Abutilon theophrasti, 1008 h, 6 weeks after application, read-out: % growth inhibition ABUTH
Method: as §1

CHEAL [4] = assay: as above; format: in vivo; details: Chenopodium album, 1008 h, Loc 6, pyroxasulfone 90 g a.i./ha, 6 weeks after application, read-out: % growth inhibition CHEAL
Method: as §1

KCHSC = assay: Greenhouse pre-emergence residual test (Example 73); format: in vivo, Bassia scoparia; details: Bassia scoparia, pre-emergence; Dose 90 g a.i./ha; 17-21 DAT; read-out: Pre-emergence percent weed growth and germination inhibition KCHSC
Method: (§2) Compound 1 was tested at several doses for residual weed control efficacy by itself or in combination as a tank mix with commercial herbicides. The following commercial products were used in tank mix with a 10% active emulsifiable concentrate formulation of Compound 1: S-metolachlor (Dual Magnum®, Syngenta), mesotrione (Callisto®, Syngenta), pyroxasulfone (Zidua® SC, BASF), metribuzin (Tricor DF™, United Phosphorus, Inc).
(§3) Accordingly, weed seeds were planted in 2-inch pots containing custom field soil mix (sandy loam with 3.3% organic matter, pH 7.0) and covered with a fine layer of the same soil. Three replicate pots were treated with each compound. Treatment consisting of the above formulation excluding active compound was applied as a treatment control (TC). Pots were treated with the test compound solution in a laboratory spray chamber fitted with 8003 even fan nozzles calibrated to deliver 187-200 L ha^−1 at 269 kPa. All treatments included the following inert ingredients in the final formulation; 1% Crop Oil Concentrate (v/v) (AGRI-DEX, Helena Agri) and 2.5% Ammonium sulphate (w/v). Compound 1 was incorporated into the soil by simulating rainfall equivalent to 0.2 mm using the same track sprayer. Subsequently, pots were irrigated from the bottom until weed control evaluation. Pots were placed back in the greenhouse and evaluated for percentage visual growth and germination inhibition compared to TC 17-21 days after treatment (DAT). Complete growth inhibition is represented by 100%.

DIGSA [5] = assay: as above; format: in vivo, Digitaria sanguinalis; details: Digitaria sanguinalis, pre-emergence; Dose 90 g a.i./ha; 17-21 DAT; read-out: Pre-emergence percent weed growth and germination inhibition DIGSA
Method: as §2, §3

ECHCG = assay: as above; format: in vivo, Echinochloa crus-galli; details: Echinochloa crus-galli, pre-emergence; Dose 90 g a.i./ha; 17-21 DAT; read-out: Pre-emergence percent weed growth and germination inhibition ECHCG
Method: as §2, §3

CHEAL [6] = assay: as above; format: in vivo, Chenopodium album; details: Chenopodium album, pre-emergence; Dose 90 g a.i./ha; 17-21 DAT; read-out: Pre-emergence percent weed growth and germination inhibition CHEAL
Method: as §2, §3

ALOMY = assay: as above; format: in vivo, Alopecurus myosuroides; details: Alopecurus myosuroides, pre-emergence; Dose 90 g a.i./ha; 17-21 DAT; read-out: Pre-emergence percent weed growth and germination inhibition ALOMY
Method: as §2, §3

AMAPA [7] = assay: as above; format: in vivo, Amaranthus palmeri; details: Amaranthus palmeri, pre-emergence; Dose 90 g a.i./ha; 17-21 DAT; read-out: Pre-emergence percent weed growth and germination inhibition AMAPA
Method: as §2, §3

AMATU [8] = assay: as above; format: in vivo, Amaranthus rudis; details: Amaranthus tuberculatus, pre-emergence; Dose 90 g a.i./ha; 17-21 DAT; read-out: Pre-emergence percent weed growth and germination inhibition AMATU
Method: as §2, §3

[9] = Loc 3, pyroxasulfone 90 g a.i./ha

SMILES: Cn1nc(C(F)(F)F)c(CS(=O)(=O)C2=NOC(C)(C)C2)c1OC(F)F [pyroxasulfone]
- inhibition at 90 g/ha (AMATU [1]; Loc 1, pyroxasulfone 90 g a.i./ha): 97%
- inhibition at 90 g/ha (AMATU [1]; Loc 2, pyroxasulfone 90 g a.i./ha): 74%
- inhibition at 90 g/ha (DIGSA [2]): 74%
- inhibition at 90 g/ha (SETFA): 77%
- inhibition at 90 g/ha (AMAPA [3]; [9]): 34%
- inhibition at 90 g/ha (AMAPA [3]; Loc 5, pyroxasulfone 90 g a.i./ha): 75%
- inhibition at 90 g/ha (ABUTH; [9]): 44%
- inhibition at 90 g/ha (ABUTH; Loc 4, pyroxasulfone 90 g a.i./ha): 60%
- inhibition at 90 g/ha (ABUTH; Loc 6, pyroxasulfone 90 g a.i./ha): 50%
- inhibition at 90 g/ha (CHEAL [4]): 88%
- inhibition at 90 g/ha (KCHSC): 80%
- inhibition at 90 g/ha (DIGSA [5]): 78%
- inhibition at 90 g/ha (ECHCG): 100%
- inhibition at 90 g/ha (CHEAL [6]): 100%
- inhibition at 90 g/ha (ALOMY): 47%
- inhibition at 90 g/ha (AMAPA [7]): 73%
- inhibition at 90 g/ha (AMATU [8]): 83%
